In one data set the test system is monocytes. As to the kind of experiment: FACS uptake of BODIPY FL conjugates in PBMCs (Example 3). As to conditions: 135 nM. The data set is classed as cell-based, human. The method, then: (§1) FIG. 3A. Conjugate compounds coupled to BODIPY FL were tested for uptake using 135 nM each conjugate and 4.5 minute incubation with human lymphocytes, monocytes and neutrophils (from a healthy donor). Mean fluorescent intensities (MFI). 1,000 cells (lymphocytes), 500 cells (monocytes) and 250 cells (neutrophils) sorted by FACS. Bars represent mean±SD. Results represent a single experiment done in duplicate.
(§2) In addition to this, 25 mL of full blood was collected from a healthy donor in lithium-heparin vacutainer. Peripheral blood mononuclear cells (PBMCs) were collected after ficoll separation. PBMCs then were centrifuge at 400 g for 5 minutes. Supernatant was removed from the cells and resuspended with 20 mL of HBSS with a final concentration of 417,500 cells/mL. Then, 479 μL of cells suspension were poured into Eppendorf tube and 1000 μL of 200 nM drug solution in HBSS were added to afford 135 nM final drug concentration, incubated at 37 °C for 5 minutes. After incubation time, PBMCs were centrifuged at 400 g for 5 minutes. Supernatant was removed from the cells and pellet resuspended with 200 μL of HBSS. Suspension was transferred to 96 well-plate and run on FACS machine, approximately 1,000-250 cells analysed. The FACS results output represented the mean of the fluorescence intensities (in arbitrary units) measured for cells sorted in every sample.

The next data set has as its system neutrophils. Described as above. The data set is classed as cell-based, human. Conditions: 135 nM. The method, then: as §1, §2
A short description of data set [1]: Whole body fluorescent cryo-imaging, tissue distribution (Example 13). The data set is classed as in vivo, mouse. As to conditions: 0.7 mg/kg i.v., 1 hour post dosing. Here is the method:
(§3) Materials and methods: Compound 124 was supplied as a 10 mM stock solution in DMSO. NZM011 cells were grown in AMEM, 5% FBS, 5 μg/mL insulin, 5 μg/mL transferrin, 5 ng/mL sodium selenite at 37 °C with 5% O2, 90% N2 5% CO2. The study was performed in 6-week-old male NIH-III athymic mice (strain code 201). Work was carried out by Ichor Biosciences La Fayette NY, USA. Mice were injected on one flank with 5×10^6 NZM11 cells in a 50:50 matrigel:media suspension with a 22G needle. When tumours reach over 500 mm3 the mice were administered intravenously (tail vein) with a solution of compound 124 in phosphate buffered saline at a dose of 0.7 mg/kg. The mice were euthanized at 1 hour or 6 hours post dosing and frozen for cryoimaging. A control mouse received no tumour cells or compound 124 and was euthanized and frozen for cryoimaging at the same time as the treated mice.
(§4) Processed animals were cryoimaged imaged at BioInvision in Cleveland Ohio. Whole animal was sectioned at 40 microns and imaged using brightfield at fluorescent modes (503 nm). In-plane pixel size 10 microns. Mouse #1 with tumour on one flank at 500 mm3, treated with compound 124 (0.7 mg/kg) and euthanised 1 hour post treatment. Mouse #6 no tumour or compound 124 treatment euthanised on same day.

Data set [2] has as its system melanoma tumours (NZM11 cells). As to the kind of experiment: Whole body fluorescent cryo-imaging, tumour targeting (Example 13). The data set is classed as in vivo, mouse. Conditions: 0.7 mg/kg i.v., 1 hour post dosing. Here is the method: as §3, §4
In data set [3] the test system is PBMCs / normal blood cells. As to the kind of experiment: FACS uptake of BODIPY FL conjugates in PBMCs (Example 3). The data set is classed as cell-based, human. As to conditions: 135 nM. The method, then:
as §1, §2

The next data set concerns Jurkat cells. The experiment in a line: Time course of uptake by FACS (Example 6). The data set is classed as cell-based, human. As to conditions: 200 nM. Here is the method:
FIG. 6: Time course of uptake for 124, 126, and 132 conjugate compounds. Tests were performed using 200 nM each conjugate and 5, 30 and 60 min incubation with Jurkat cells (immortalized T lymphocytes). Mean fluorescent intensities (MFI). 1,200 cells sorted by FACS. Bars represent mean±SD. Results represents a single experiment done in triplicate.
Materials and methods: Jurkat cells were diluted on RPMI media (supplemented with 10% FBS+1% penicillin-streptomycin) to 400 cells/μL. 5 μL of […] stock solutions in DMSO from 124, 126 and 132 were diluted with 1245 μL of RPMI media (supplemented with 10% FBS+1% penicillin-streptomycin) to give a 400 nM solution. 250 μL of cell suspensions were then added to each well in a 96 well plate and 250 μL of conjugate solutions (giving a 200 nM final concentration). 250 μL of media only was added to the DMSO control wells. Incubation was carried out for 5, 30 and 60 minutes at 37 °C in triplicate wells for each compound and time point.
In general terms: A flow cytometer gives signals particle by particle.

Data set [4] deals with NZM40 (NRAS Q16H) melanoma cell line. The experiment in a line: Sulforhodamine B (SRB) assay of proliferation (Example 7). The data set is classed as cell-based, human. As to conditions: 1 μM, 72 h. The method, then: FIG. 7: The 124 conjugate was tested for toxicity using 1 μM final concentration and 72 hour incubation with melanoma cell line NZM40 (NRAS Q16H mutant metastatic melanoma). Cell densities were calculated according with sulforhodamine B assay (SRB assay), absorbance at 515 nm. Cells images of DMSO control and 124 were taken at 24, 48 and 72 h through brightfield using conventional microscope. Results represents a single experiment done in a single sample.
Materials and methods: NZM40 cell line is described above. 1×10^6 NZM40 cells diluted in MEMα media were added to 2×10 cm plates and left to settle for 24 hours. After 24 hour settle period, media was removed from cells and 9900 μL fresh MEMα media added to each plate. 100 μL of DMSO were added to control plate and 100 μL [100 μM 124 in DMSO] were added to treatment plate to afford a final concentration of 1 μM 124. Cells were incubated at 37 °C and 5% 02 for 72 hours and cell images were taken every 24 hours. After 72 hour incubation, sulforhodamine B (SRB) assay was performed to compare final cell density. For this, 2.5 mL of cold 50% (w/v) TCA were added to DMSO (control) and 124 plates. Cells were incubated for 1 hour in TCA at 4 °C. […] The 96 well plate was analysed on plate reader, at wavelength of 515 nm. Results represent the absorbance of cells without dilution, 1:2 dilution, 1:4 dilution and 1:8 dilution.

Entries after “also recorded” stand apart in the source; their conditions may differ.

As for `CC1=CC(C)=[N+]2C1=Cc1ccc(CCCn3cc(CCNC(=O)/C=C/NC(=O)[C@@H]4OC(C)(C)OCC4(C)C)nn3)n1[B-]2(F)F` [Compound 125, (R,E)-N-((((3-[4,4-difluoro-5,7-dimethyl-4-bora-3a,4a-diaza-s-indacene-3-yl]propyl)-1H-1,2,3-triazol-4-yl)eth-ylamino)-3-oxoprop-1-enyl)-2,2,5,5-tetramethyl-1,3-dioxane-4-carboxamide], the “targeting / fluorescence intensities” value in the data set on monocytes and in the data set with neutrophils was “showed targeting” each time.
Take `CC1=CC(C)=[N+]2C1=Cc1ccc(CCCn3cc(CCNC(=O)/C=C/NC(=O)[C@H](O)C(C)(C)CO)nn3)n1[B-]2(F)F` [Compound 124]: in data set [1], the “124-specific fluorescence in bladder” value is recorded as “strong 124-specific fluorescence; also recorded: Specific 124-fluorescence was observed; also recorded: strong fluorescence observed in the bladder; also recorded: Fluorescence specific for compound 124 was seen”; the “124-specific fluorescence in kidneys” value was 124-specific fluorescence was observed in the kidney medulla and kidneys (mainly renal medulla); the “fluorescence in any other tissues” value is “No fluorescence”; the route of excretion entry was “renal clearance; also recorded: renal route”. Besides, the “124-specific fluorescence in tumour” value in data set [2] is 124-specific fluorescence was also seen in the region of the implanted tumour and Specific 124-fluorescence was observed in the region of the tumour and specific green fluorescence from compound 124 was seen in the proximity of the tumour and specifically targeted and bound to tumour in vivo. Moreover, the uptake entry in data set [3] is reported as “no significant uptake”. In addition, the “incubation time to saturation point” value in the data set with Jurkat cells was not above 30 min. In the data set on Jurkat cells (5 to 60 minutes), the “uptake, in words” value was “increased between 5 and 30 minutes; also recorded: selective uptake”. In the data set with Jurkat cells (5 minutes), the “fluorescent intensity compared to 126 and 132” value was “double”. For the same compound, the “fluorescent intensity compared to 126 and 132” value in the data set on Jurkat cells (30 minutes) is reported as “six times greater”. The “times greater fluorescence than 126 and 132” value with Jurkat cells (60 minutes) was found to be 6 times. Moreover, in data set [4], the effect on proliferation entry was “comparable proliferation to DMSO control cells; also recorded: no significant difference on proliferation; also recorded: little to no effect on proliferation” and the morphology under microscope entry is on record as “do not exhibit significant changes on morphology”.

The record behind these values is patent US20260364186A1, “Chemical Conjugates, Compositions, and Methods of Preparation and Use Thereof” (Transfection Holdings Limited, priority 2022, published 2026).
